For eleven compounds, EC50 and CC50 results are on record in patent US20220370451A1, “INHIBITORS OF HUMAN IMMUNODEFICIENCY VIRUS REPLICATION” (VIIV HEALTHCARE UK ( No. 5) LIMITED, priority 2019, published 2022).

A word on the EC50: it is the midpoint of the concentration-response curve. Usually CC50 stands for the concentration that lowers cell viability or growth by half. A high value points to lower toxicity to the cells.

The subject of data set [1] is recombinant NL4-3 virus. The data set can be described thus: HIV cell culture assay (luciferase reporter antiviral activity). Conditions: Human immunodeficiency virus 1, NL43, MT2. The class given is cell-based. The protocol:
HIV cell culture assay—MT=2 cells, 293T cells and the proviral DNA clone of NL4-3 virus were obtained from the NIH AIDS Research and Reference Reagent Program. MT=2 cells were propagated in RPMI 1640 media supplemented with 10% heat inactivated fetal bovine serum (FBS), […] penicillin G and up to 100 units/mL streptomycin. The 293T cells were propagated in DMEM media supplemented with 10% heat inactivated FBS, […] penicillin G and […] streptomycin. A recombinant NL4-3 proviral clone, in which a section of the nef gene was replaced with the Renilla luciferase gene, was used to make the reference virus used in these studies. The recombinant virus was prepared through transfection of the recombinant NL4-3 proviral clone into 293T cells using Transit-293 Transfection Reagent from Mirus Bio LLC (Madison, Wis.). Supernatent was harvested after 2-3 days and the amount of virus present was titered in MT=2 cells using luciferase enzyme activity as a marker by measuring luciferase enzyme activity. Luciferase was quantitated using the EnduRen Live Cell Substrate from Promega (Madison, Wis.). Antiviral activities of compounds toward the recombinant virus were quantified by measuring luciferase activity in MT=2 cells infected for 4-5 days with the recombinant virus in the presence of serial dilutions of the compound.
The 50% effective concentration (EC50) was calculated by using the exponential form of the median effect equation where (Fa)=1/[1+(ED50/drug conc.)m] (Johnson V A, Byington RT. Infectivity Assay. In Techniques in HIV Research. ed. Aldovini A, Walker B D. 71-76. New York: Stockton Press.1990). The 50% inhibitory concentration (EC50) was calculated by using the exponential form of the median effect equation where percent inhibition=1/[1+(EC50/drug concentration)m], where m is a parameter that reflects the slope of the concentration-response curve.
On the technique in general: In a reporter assay the amount or activity of a reporter protein is the signal.

The nature of data set [2]: Compound cytotoxicity, XTT-based colorimetric assay. The class given is cell-based. The note with it: human; uninfected MT2 cells, day 4, XTT. The protocol: Compound cytotoxicity and the corresponding CC50 values were determined using the same protocol as described in the antiviral assay except that uninfected cells were used. Cytotoxicity was assessed on day 4 in uninfected MT2 cells by using a XTT (2,3-bis[2-Methoxy-4-nitro-5-sulfophenyl]-2H-tetrazolium-5-carboxyanilide inner salt)-based colorimetric assay (Sigma-Aldrich, St Louis, Mo.).
A general note: Formazan colour is commonly taken as a measure of viable cells.

Bounds are passed on as bounds.

Turning to `Cc1nccnc1-c1ccc2c(=O)n(-c3ccc(Cl)c4c(NS(C)(=O)=O)nn(C)c34)c([C@H](Cc3cc(F)cc(F)c3)NC(=O)Cn3nc(C(F)(F)F)cc3C(F)(F)F)nc2c1` (atropisomer, axis not shown; (P)) [Example 1, (S)-2-(3,5-bis(trifluoromethyl)-1H-pyrazol-1-yl)-N-(1-((3P)-3-(4-chloro-1-methyl-3-(methylsulfonamido)-1H-indazol-7-yl)-7-(3-methylpyrazin-2-yl)-4-oxo-3,4-dihydroquinazolin-2-yl)-2-(3,5-difluorophenyl)ethyl)acetamide], in data set [1], the EC50 stood at 1900 pM. Also, the CC50 at 4 days in data set [2] was > 500000 pM.
Consider `Cc1nccnc1-c1ccc2c(=O)n(-c3ccc(Cl)c4c(NS(C)(=O)=O)nn(C)c34)c([C@H](Cc3cc(F)cc(F)c3)NC(=O)Cn3nc(C4CC4)c4ccccc43)nc2c1` (atropisomer, axis not shown; (P)) [Example 2, (S)-N-(1-((3P)-3-(4-chloro-1-methyl-3-(methylsulfonamido)-1H-indazol-7-yl)-7-(3-methylpyrazin-2-yl)-4-oxo-3,4-dihydroquinazolin-2-yl)-2-(3,5-difluorophenyl)ethyl)-2-(3-cyclopropyl-1H-indazol-1-yl)acetamide], for which, in data set [1], the EC50 is 210 pM. Besides, the CC50 at 4 days in data set [2] is > 500000 pM.
Regarding `Cc1cc(C)nc(-c2ccc3c(=O)n(-c4ccc(Cl)c5c(NS(C)(=O)=O)nn(C)c45)c([C@H](Cc4cc(F)cc(F)c4)NC(=O)Cn4nc(C(F)(F)F)cc4C(F)(F)F)nc3c2)n1` (atropisomer, axis not shown; (P)) [Example 3, (S)-2-(3,5-bis(trifluoromethyl)-1H-pyrazol-1-yl)-N-(1-((3P)-3-(4-chloro-1-methyl-3-(methylsulfonamido)-1H-indazol-7-yl)-7-(4,6-dimethylpyrimidin-2-yl)-4-oxo-3,4-dihydroquinazolin-2-yl)-2-(3,5-difluorophenyl)ethyl)acetamide], the EC50 in data set [1] is 3600 pM. In addition, the CC50 at 4 days in data set [2] is > 500000 pM.
For `Cc1cc(C)nc(-c2ccc3c(=O)n(-c4ccc(Cl)c5c(NS(C)(=O)=O)nn(C)c45)c([C@H](Cc4cc(F)cc(F)c4)NC(=O)Cn4nc(C5CC5)c5ccccc54)nc3c2)n1` (atropisomer, axis not shown; (P)) [Example 4, (S)-N-(1-((3P)-3-(4-chloro-1-methyl-3-(methylsulfonamido)-1H-indazol-7-yl)-7-(4,6-dimethylpyrimidin-2-yl)-4-oxo-3,4-dihydroquinazolin-2-yl)-2-(3,5-difluorophenyl)ethyl)-2-(3-cyclopropyl-1H-indazol-1-yl)acetamide], in data set [1], the EC50 was determined as 910 pM. In addition, the CC50 at 4 days in data set [2] is > 500000 pM.
For `Cc1nccnc1-c1ccc2c(=O)n(-c3ccc(Cl)c4c(NS(C)(=O)=O)nn(C)c34)c([C@H](Cc3cc(F)cc(F)c3)NC(=O)Cn3ccc(C(C)(C)C)n3)nc2c1` (atropisomer, axis not shown; (P)) [Example 5, (S)-2-(3-(tert-butyl)-1H-pyrazol-1-yl)-N-(1-((3P)-3-(4-chloro-1-methyl-3-(methylsulfonamido)-1H-indazol-7-yl)-7-(3-methylpyrazin-2-yl)-4-oxo-3,4-dihydroquinazolin-2-yl)-2-(3,5-difluorophenyl)ethyl)acetamide], in data set [1], the 50% effective concentration (EC50) turned out to be 650 pM. Further, in data set [2], the cytotoxic concentration (CC50) at 4 days is > 500000 pM.
As for `Cc1nccnc1-c1ccc2c(=O)n(-c3ccc(Cl)c4c(NS(C)(=O)=O)nn(C)c34)c([C@H](Cc3cc(F)cc(F)c3)NC(=O)Cn3nc(C(F)F)c4ccccc43)nc2c1` (atropisomer, axis not shown; (P)) [Example 7, (S)-N-(1-((3P)-3-(4-chloro-1-methyl-3-(methylsulfonamido)-1H-indazol-7-yl)-7-(3-methylpyrazin-2-yl)-4-oxo-3,4-dihydroquinazolin-2-yl)-2-(3,5-difluorophenyl)ethyl)-2-(3-(difluoromethyl)-1H-indazol-1-yl)acetamide], the concentration giving a half-maximal response (EC50) in data set [1] amounted to 380 pM. In addition, the cytotoxic concentration (CC50) at 4 days in data set [2] is > 500000 pM.
In the same order, the values of `Cc1nccnc1-c1ccc2c(=O)n(-c3ccc(Cl)c4c(NS(C)(=O)=O)nn(C)c34)c([C@H](Cc3cc(F)cc(F)c3)NC(=O)Cn3nc(C4CC4)cc3C)nc2c1` (atropisomer, axis not shown; (P)) [Example 10, (S)-N-(1-((3P)-3-(4-chloro-1-methyl-3-(methylsulfonamido)-1H-indazol-7-yl)-7-(3-methylpyrazin-2-yl)-4-oxo-3,4-dihydroquinazolin-2-yl)-2-(3,5-difluorophenyl)ethyl)-2-(3-cyclopropyl-5-methyl-1H-pyrazol-1-yl)acetamide] are 210 pM and > 500000 pM.
As for `Cc1nccnc1-c1ccc2c(=O)n(-c3ccc(Cl)c4c(NS(C)(=O)=O)nn(C)c34)c([C@H](Cc3cc(F)cc(F)c3)NC(=O)Cn3ccc(C4CCC4)n3)nc2c1` (atropisomer, axis not shown; (P)) [Example 11, (S)-N-(1-((3P)-3-(4-chloro-1-methyl-3-(methylsulfonamido)-1H-indazol-7-yl)-7-(3-methylpyrazin-2-yl)-4-oxo-3,4-dihydroquinazolin-2-yl)-2-(3,5-difluorophenyl)ethyl)-2-(3-cyclobutyl-1H-pyrazol-1-yl)acetamide], in data set [1], the concentration giving a half-maximal response (EC50) was found to be 390 pM. In addition, the CC50 at 4 days in data set [2] was > 500000 pM.
For the compound `Cc1nccnc1-c1ccc2c(=O)n(-c3ccc(Cl)c4c(NS(C)(=O)=O)nn(C)c34)c([C@H](Cc3cc(F)cc(F)c3)NC(=O)Cn3nc(C(F)(F)F)cc3C)nc2c1` (atropisomer, axis not shown; (P)) [Example 12, (S)-N-(1-((3P)-3-(4-chloro-1-methyl-3-(methylsulfonamido)-1H-indazol-7-yl)-7-(3-methylpyrazin-2-yl)-4-oxo-3,4-dihydroquinazolin-2-yl)-2-(3,5-difluorophenyl)ethyl)-2-(5-methyl-3-(trifluoromethyl)-1H-pyrazol-1-yl)acetamide], the EC50 in data set [1] was determined as 490 pM. Moreover, the CC50 at 4 days in data set [2] was > 500000 pM.
As for `O=C(Cn1nc(C2CC2)c2ccccc21)N[C@@H](Cc1cc(F)cc(F)c1)c1nc2nc(-c3ccccc3F)ccc2c(=O)n1-c1ccc(Cl)c2c(NS(=O)(=O)C3CC3)nn(CC(F)F)c12` (atropisomer, axis not shown; (P)) [Example 13, (S)-N-(1-((3P)-3-(4-chloro-3-(cyclopropanesulfonamido)-1-(2,2-difluoroethyl)-1H-indazol-7-yl)-7-(2-fluorophenyl)-4-oxo-3,4-dihydropyrido[2,3-d]pyrimidin-2-yl)-2-(3,5-difluorophenyl)ethyl)-2-(3-cyclopropyl-1H-indazol-1-yl)acetamide], in data set [1], the EC50 was found to be 470 pM. In data set [2], the CC50 at 4 days was > 500000 pM.
As to `Cn1nc(NS(C)(=O)=O)c2c(Cl)ccc(-n3c([C@H](Cc4cc(F)cc(F)c4)NC(=O)Cn4ccc(C(C)(C)C)n4)nc4nc(-c5ccccc5F)ccc4c3=O)c21` (atropisomer, axis not shown; (P)) [Example 14, (S)-2-(3-(tert-butyl)-1H-pyrazol-1-yl)-N-(1-((3P)-3-(4-chloro-1-methyl-3-(methylsulfonamido)-1H-indazol-7-yl)-7-(2-fluorophenyl)-4-oxo-3,4-dihydropyrido[2,3-d]pyrimidin-2-yl)-2-(3,5-difluorophenyl)ethyl)acetamide], in data set [1], the half-maximal effective concentration (EC50) stood at 530 pM. Moreover, the CC50 at 4 days in data set [2] was > 500000 pM.
